Here are results for ten molecules from ChEMBL document CHEMBL4219117, “Chemical synthesis of an indomethacin ester prodrug and its metabolic activation by human carboxylesterase 1” (Bioorg Med Chem Lett, 2018).

In data set [1] the target is T1, Liver carboxylesterase 1 (Homo sapiens, UniProt P23141).
T1 sequence (P23141 whole entry): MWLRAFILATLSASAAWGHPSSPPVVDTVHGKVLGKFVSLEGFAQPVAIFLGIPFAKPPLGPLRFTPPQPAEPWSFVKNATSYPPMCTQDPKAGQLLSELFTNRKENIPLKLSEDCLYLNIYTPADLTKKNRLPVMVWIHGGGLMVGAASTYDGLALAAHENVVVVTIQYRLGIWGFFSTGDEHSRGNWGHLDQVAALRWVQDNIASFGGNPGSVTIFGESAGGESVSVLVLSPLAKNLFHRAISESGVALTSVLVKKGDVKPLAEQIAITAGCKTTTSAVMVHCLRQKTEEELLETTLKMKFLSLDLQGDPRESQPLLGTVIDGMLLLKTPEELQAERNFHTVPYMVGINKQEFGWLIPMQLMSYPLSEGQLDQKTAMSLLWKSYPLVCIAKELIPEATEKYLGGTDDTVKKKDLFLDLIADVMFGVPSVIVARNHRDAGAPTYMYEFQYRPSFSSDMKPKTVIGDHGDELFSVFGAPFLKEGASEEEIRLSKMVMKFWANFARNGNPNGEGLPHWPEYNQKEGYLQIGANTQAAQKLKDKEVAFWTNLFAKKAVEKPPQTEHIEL
Description: Prodrug activation in human liver microsomes assessed as carboxylesterase 1-mediated indomethacin formation at 0.25 mM after 30 to 1440 mins by HPLC analysis. Particulars: 250 µM.

The target in data set [2] is T1, Liver carboxylesterase 1. As to the kind of experiment: Prodrug activation assessed as human carboxylesterase 1b-mediated indomethacin formation by measuring intrinsic clearance per mg protein at 0.003125 to 0.10 mM after 30 to 180 mins by HPLC based Michaelis-Menten plot analysis. Conditions: isolated protein, 100 µM.
The target of data set [3] is T1, Liver carboxylesterase 1. Description: Prodrug activation in human intestine microsomes assessed as carboxylesterase 1-mediated indomethacin formation at 0.25 mM after 30 to 1440 mins by HPLC analysis. Conditions: 250 µM.
Substrate in data set [4]: CC[C@H](OC(=O)Cc1c(C)n(C(=O)c2ccc(Cl)cc2)c2ccc(OC)cc12)c1ccccc1
As to the kind of experiment: (§1) Prodrug activation assessed as human carboxylesterase 1b-mediated indomethacin formation at 0.003125 to 0.10 mM after 30 to 180 mins by HPLC based Michaelis-Menten plot analysis.

Substrate in data set [5]: COc1ccc2c(c1)c(CC(=O)OCC(C)(C)C)c(C)n2C(=O)c1ccc(Cl)cc1
Described as §1.

Substrate in data set [6]: CC[C@@H](OC(=O)Cc1c(C)n(C(=O)c2ccc(Cl)cc2)c2ccc(OC)cc12)c1ccccc1
Described as §1.

Substrate in data set [7]: CCCCSC(=O)Cc1c(C)n(C(=O)c2ccc(Cl)cc2)c2ccc(OC)cc12
The data set is described as §1.

Substrate in data set [8]: CC[C@@H](C)OC(=O)Cc1c(C)n(C(=O)c2ccc(Cl)cc2)c2ccc(OC)cc12
The data set is described as §1.

Substrate in data set [9]: CCCCOC(=O)Cc1c(C)n(C(=O)c2ccc(Cl)cc2)c2ccc(OC)cc12
Described as §1.

Substrate in data set [10]: COc1ccc2c(c1)c(CC(=O)OCC(C)C)c(C)n2C(=O)c1ccc(Cl)cc1
The description is as §1.

Substrate in data set [11]: CC[C@H](C)OC(=O)Cc1c(C)n(C(=O)c2ccc(Cl)cc2)c2ccc(OC)cc12
The data set is described as §1.

As for `COc1ccc2c(c1)c(CC(=O)OCC(C)(C)C)c(C)n2C(=O)c1ccc(Cl)cc1`, the Drug metabolism result on Liver carboxylesterase 1 [1] is listed as “Metabolite_Detected”; at Liver carboxylesterase 1 [3], “Metabolite_Notdetected”. Further, on Liver carboxylesterase 1 [2], the clearance was determined as 69 µL/min/mg.

Take `CC[C@H](C)OC(=O)Cc1c(C)n(C(=O)c2ccc(Cl)cc2)c2ccc(OC)cc12`: the Drug metabolism entry at Liver carboxylesterase 1 [1] and at Liver carboxylesterase 1 [3] was “Metabolite_Notdetected” in each case. In addition, on Liver carboxylesterase 1 [2], the clearance worked out at 2.1 µL/min/mg.

Regarding `COc1ccc2c(c1)c(CC(=O)OC(C)(C)C)c(C)n2C(=O)c1ccc(Cl)cc1`, the Drug metabolism entry on Liver carboxylesterase 1 [1] and at Liver carboxylesterase 1 [3] was “Metabolite_Notdetected” in each case.

As to `CC[C@@H](C)OC(=O)Cc1c(C)n(C(=O)c2ccc(Cl)cc2)c2ccc(OC)cc12`, the Drug metabolism result at Liver carboxylesterase 1 [1] and at Liver carboxylesterase 1 [3] was “Metabolite_Notdetected” each time. In addition, the clearance at Liver carboxylesterase 1 [2] worked out at 4.8 µL/min/mg.

For `CC[C@@H](OC(=O)Cc1c(C)n(C(=O)c2ccc(Cl)cc2)c2ccc(OC)cc12)c1ccccc1`, the Drug metabolism result at Liver carboxylesterase 1 [1] and at Liver carboxylesterase 1 [3] was “Metabolite_Notdetected” in each case. In addition, the clearance at Liver carboxylesterase 1 [2] came out at 7 µL/min/mg.

`COc1ccc2c(c1)c(CC(=O)OCC(C)C)c(C)n2C(=O)c1ccc(Cl)cc1`: the Drug metabolism result at Liver carboxylesterase 1 [1] and on Liver carboxylesterase 1 [3] was “Metabolite_Detected” throughout. Moreover, the clearance at Liver carboxylesterase 1 [2] worked out at 89 µL/min/mg.

On to `CCCCOC(=O)Cc1c(C)n(C(=O)c2ccc(Cl)cc2)c2ccc(OC)cc12`, for which the Drug metabolism entry on Liver carboxylesterase 1 [1] and on Liver carboxylesterase 1 [3] was “Metabolite_Detected” throughout. The clearance at Liver carboxylesterase 1 [2] was 340 µL/min/mg.

Turning to `CCCCSC(=O)Cc1c(C)n(C(=O)c2ccc(Cl)cc2)c2ccc(OC)cc12`, the Drug metabolism result on Liver carboxylesterase 1 [1] and on Liver carboxylesterase 1 [3] was “Metabolite_Detected” each time. The clearance at Liver carboxylesterase 1 [2] was found to be 380 µL/min/mg.

Take `CC[C@H](OC(=O)Cc1c(C)n(C(=O)c2ccc(Cl)cc2)c2ccc(OC)cc12)c1ccccc1`: the Drug metabolism result at Liver carboxylesterase 1 [1] and at Liver carboxylesterase 1 [3] was “Metabolite_Notdetected” each time. Moreover, the clearance at Liver carboxylesterase 1 [2] is 0.3 µL/min/mg.

B1: Liver carboxylesterase 1 (Homo sapiens) (protein)
chain: MWLRAFILATLSASAAWGHPSSPPVVDTVHGKVLGKFVSLEGFAQPVAIFLGIPFAKPPLGPLRFTPPQPAEPWSFVKNATSYPPMCTQDPKAGQLLSELFTNRKENIPLKLSEDCLYLNIYTPADLTKKNRLPVMVWIHGGGLMVGAASTYDGLALAAHENVVVVTIQYRLGIWGFFSTGDEHSRGNWGHLDQVAALRWVQDNIASFGGNPGSVTIFGESAGGESVSVLVLSPLAKNLFHRAISESGVALTSVLVKKGDVKPLAEQIAITAGCKTTTSAVMVHCLRQKTEEELLETTLKMKFLSLDLQGDPRESQPLLGTVIDGMLLLKTPEELQAERNFHTVPYMVGINKQEFGWLIPMQLMSYPLSEGQLDQKTAMSLLWKSYPLVCIAKELIPEATEKYLGGTDDTVKKKDLFLDLIADVMFGVPSVIVARNHRDAGAPTYMYEFQYRPSFSSDMKPKTVIGDHGDELFSVFGAPFLKEGASEEEIRLSKMVMKFWANFARNGNPNGEGLPHWPEYNQKEGYLQIGANTQAAQKLKDKEVAFWTNLFAKKAVEKPPQTEHIEL
By Km is commonly meant the concentration of substrate that gives half-maximal velocity. Broadly, the Vmax is the top rate of the reaction or transport when substrate is in excess. B1: the Km in [4] was 6.5 µM; in data set [5], 4.6 µM; in [6], 2.9 µM; in data set [7], 2.1 µM; in [8] it was 10.1 µM; in data set [9] it was 4.4 µM. Besides, the results for the Km in [10] and in data set [11] were 13.7 µM and 48.5 µM, respectively. Further, the Vmax in [4] was 2e-06 µmol/min; in data set [5], 0.000322 µmol/min; in data set [6], 2.1e-05 µmol/min; in data set [7], 0.0008 µmol/min; in [8], 4.9e-05 µmol/min; in [9], 0.00151 µmol/min. In addition, the figures for the Vmax in [10] and in data set [11] were 0.00122 µmol/min and 0.000103 µmol/min, respectively.
